Assay results reported in patent publication US9567302B2, “Carbamate compounds and of making and using same” (Abide Therapeutics, Inc., priority 2012, dated 2017).

Legend:
Type in all cases: biochemical
Set-up in all cases: from tissue; host or cells: mouse brain membrane fraction
Conditions in all cases: Table 2, mouse proteome, 30 min preincubation at 37° C.
[1] = molecular target: T1, ABHD6 (Mus musculus, UniProt Q8R2Y0); experiment: In vitro competitive activity-based protein profiling (FP-Rh), mouse ABHD6
T1 sequence (Q8R2Y0 1-336): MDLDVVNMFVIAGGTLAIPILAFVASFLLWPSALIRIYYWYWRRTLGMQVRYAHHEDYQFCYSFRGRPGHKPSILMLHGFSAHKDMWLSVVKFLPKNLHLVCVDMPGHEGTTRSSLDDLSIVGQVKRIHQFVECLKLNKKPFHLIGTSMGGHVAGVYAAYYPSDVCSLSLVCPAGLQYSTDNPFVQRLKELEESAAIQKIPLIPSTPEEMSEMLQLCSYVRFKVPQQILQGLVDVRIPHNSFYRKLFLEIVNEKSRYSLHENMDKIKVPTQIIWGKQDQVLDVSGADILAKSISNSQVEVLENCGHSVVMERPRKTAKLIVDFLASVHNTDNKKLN
Procedure: (§1) In Vitro Competitive Activity-Based Protein Profiling.
(§2) Proteomes (mouse brain membrane fraction or cell lysates) (50 μL, 1.0 mg/ml total protein concentration) were preincubated with varying concentrations of inhibitors at 37° C. After 30 min, FP-Rh (1.0 μL, 50 μM in DMSO) was added and the mixture was incubated for another 30 min at 37° C. Reactions were quenched with SDS loading buffer (50 μL—4×) and run on SDS-PAGE.

[2] = molecular target: T2, MAGL (Mus musculus, UniProt O35678); experiment: In vitro competitive activity-based protein profiling (FP-Rh), mouse MAGL
T2 sequence (O35678 1-303): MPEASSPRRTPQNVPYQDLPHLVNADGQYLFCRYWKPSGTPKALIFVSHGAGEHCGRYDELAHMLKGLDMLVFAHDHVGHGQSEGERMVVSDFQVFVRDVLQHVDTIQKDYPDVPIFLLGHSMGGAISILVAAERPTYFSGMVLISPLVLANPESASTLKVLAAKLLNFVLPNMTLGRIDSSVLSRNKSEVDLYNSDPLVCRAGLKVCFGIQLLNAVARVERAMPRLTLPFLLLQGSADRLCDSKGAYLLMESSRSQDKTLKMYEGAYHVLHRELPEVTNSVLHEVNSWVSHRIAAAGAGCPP
Procedure: as §1, §2

[3] = molecular target: T3, FAAH (Mus musculus, UniProt O08914); experiment: In vitro competitive activity-based protein profiling (FP-Rh), mouse FAAH
T3 sequence (O08914 1-579): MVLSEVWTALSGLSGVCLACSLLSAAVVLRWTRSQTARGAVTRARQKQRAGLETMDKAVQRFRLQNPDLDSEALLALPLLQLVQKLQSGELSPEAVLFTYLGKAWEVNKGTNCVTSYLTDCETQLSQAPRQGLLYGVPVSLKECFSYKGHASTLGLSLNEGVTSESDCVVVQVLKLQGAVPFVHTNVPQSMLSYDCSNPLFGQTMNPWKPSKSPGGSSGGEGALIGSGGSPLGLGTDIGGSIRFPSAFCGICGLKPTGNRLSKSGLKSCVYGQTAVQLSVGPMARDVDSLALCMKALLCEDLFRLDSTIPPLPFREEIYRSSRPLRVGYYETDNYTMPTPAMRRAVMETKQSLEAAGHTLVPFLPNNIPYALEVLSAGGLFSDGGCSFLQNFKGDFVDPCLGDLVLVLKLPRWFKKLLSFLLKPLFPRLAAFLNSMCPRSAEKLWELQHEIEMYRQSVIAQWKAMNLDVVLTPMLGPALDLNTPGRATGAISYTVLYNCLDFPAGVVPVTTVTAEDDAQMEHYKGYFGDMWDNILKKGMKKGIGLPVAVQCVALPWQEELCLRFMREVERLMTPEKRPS
Procedure: as §1, §2

| Structure (SMILES) | IC50 [1] | IC50 [2] | IC50 [3] |
| --- | --- | --- | --- |
| O=C(ON1C(=O)CCC1=O)N1CCN(Cc2ccc(Cl)cc2N2CCC3(CCOCC3)C2)CC1 [Example 109, 2,5-Dioxopyrrolidin-1-yl 4-[(4-chloro-2-{8-oxa-2-azaspiro[4.5]decan-2-yl}phenyl)methyl]piperazine-1-carboxylate] | 1000 to 10000 nM | < 100 nM | > 10000 nM |
| O=C(ON1C(=O)CCC1=O)N1CCN(Cc2ccc(Cl)cc2N2Cc3cccnc3C2)CC1 [Example 114, 2,5-Dioxopyrrolidin-1-yl 4-[(4-chloro-2-{5H,6H,7H-pyrrolo[3,4-b]pyridin-6-yl}phenyl)methyl]piperazine-1-carboxylate] | 100 to 1000 nM | < 100 nM | > 10000 nM |
| CC(=O)N1CCN(c2cc(Cl)ccc2CN2CCN(C(=O)ON3C(=O)CCC3=O)CC2)CC1 [Example 115, 2,5-Dioxopyrrolidin-1-yl 4-{[2-(4-acetylpiperazin-1-yl)-4-chlorophenyl]methyl}piperazine-1-carboxylate] | 1000 to 10000 nM | 100 to 1000 nM | > 10000 nM |
| COC(=O)c1cc(CN2CCN(C(=O)ON3C(=O)CCC3=O)CC2)ccc1N1CCOCC1 [Example 118, 2,5-Dioxopyrrolidin-1-yl 4-(3-(methoxycarbonyl)-4-morpholinobenzyl)piperazine-1-carboxylate] | 1000 to 10000 nM | 1000 to 10000 nM | > 10000 nM |
| Cc1c(CN2CCN(C(=O)ON3C(=O)CCC3=O)CC2)cccc1N1CCOCC1 [Example 121, 2,5-Dioxopyrrolidin-1-yl 4-(2-methyl-3-morpholinobenzyl)piperazine-1-carboxylate] | 100 to 1000 nM | < 100 nM | > 10000 nM |
| Cc1c(CN2CCN(C(=O)ON3C(=O)CCC3=O)CC2)cccc1N1CCCC1 [Example 123, 2,5-Dioxopyrrolidin-1-yl 4-(2-methyl-3-(pyrrolidin-1-yl)benzyl)piperazine-1-carboxylate] | 100 to 1000 nM | < 100 nM | > 10000 nM |
| O=C(ON1C(=O)CCC1=O)N1CCN(Cc2ccc(F)c(N3CCCC3)c2)CC1 [Example 124, 2,5-Dioxopyrrolidin-1-yl 4-(4-fluoro-3-(pyrrolidin-1-yl)benzyl)piperazine-1-carboxylate] | 100 to 1000 nM | < 100 nM | > 10000 nM |
| O=C(ON1C(=O)CCC1=O)N1CCN(Cc2ccc(Cl)cc2N2CCCCC2)CC1 [Example 129, 2,5-Dioxopyrrolidin-1-yl 4-(4-chloro-2-(piperidin-1-yl)benzyl)piperazine-1-carboxylate] | 100 to 1000 nM | < 100 nM | > 10000 nM |
| O=C(ON1C(=O)CCC1=O)N1CCN(Cc2ccc(Cl)cc2N2CC3CCC(C2)O3)CC1 [Example 130, 2,5-Dioxopyrrolidin-1-yl 4-(2-(8-oxa-3-azabicyclo[3.2.1]octan-3-yl)-4-chlorobenzyl)piperazine-1-carboxylate] | 1000 to 10000 nM | < 100 nM | > 10000 nM |
| O=C(ON1C(=O)CCC1=O)N1CCN(Cc2ccc(Cl)cc2N2CCOC3CCCC32)CC1 (stereo not drawn) [Example 131, 2,5-Dioxopyrrolidin-1-yl 4-(4-chloro-2-(hexahydrocyclopenta[b][1,4]oxazin-4(4aH)-yl)benzyl)piperazine-1-carboxylate] | 1000 to 10000 nM | < 100 nM | > 10000 nM |
| O=C(ON1C(=O)CCC1=O)N1CCN(Cc2cc(Cl)cc(N3CCCCC3)c2)CC1 [Example 132, 2,5-Dioxopyrrolidin-1-yl 4-(3-chloro-5-(piperidin-1-yl)benzyl)piperazine-1-carboxylate] | 100 to 1000 nM | < 100 nM | > 10000 nM |
| O=C(ON1C(=O)CCC1=O)N1CCN(Cc2cccc(N3CCCCC3)c2)CC1 [Example 133, 2,5-Dioxopyrrolidin-1-yl 4-(3-(piperidin-1-yl)benzyl)piperazine-1-carboxylate] | < 100 nM | < 100 nM | > 10000 nM |
| O=C1COc2ccc(CN3CCN(C(=O)ON4C(=O)CCC4=O)CC3)cc2N1 [Example 134, 2,5-Dioxopyrrolidin-1-yl 4-((3-oxo-3,4-dihydro-2H-benzo[b][1,4]oxazin-6-yl)methyl)piperazine-1-carboxylate] | 1000 to 10000 nM | 1000 to 10000 nM | > 10000 nM |
| Cc1nn(-c2ccccc2)cc1CN1CCN(C(=O)ON2C(=O)CCC2=O)CC1 [Example 138, 2,5-Dioxopyrrolidin-1-yl 4-((3-methyl-1-phenyl-1H-pyrazol-4-yl)methyl)piperazine-1-carboxylate] | 100 to 1000 nM | 1000 to 10000 nM | 1000 to 10000 nM |
| Cn1nc(-c2ccccc2)cc1CN1CCN(C(=O)ON2C(=O)CCC2=O)CC1 [Example 139, 2,5-dioxopyrrolidin-1-yl 4-((1-methyl-3-phenyl-1H-pyrazol-5-yl)methyl)piperazine-1-carboxylate] | 100 to 1000 nM | 100 to 1000 nM | > 10000 nM |
| Cc1nc(-c2ccccc2)oc1CN1CCN(C(=O)ON2C(=O)CCC2=O)CC1 [Example 143, 2,5-Dioxopyrrolidin-1-yl 4-((4-methyl-2-phenyloxazol-5-yl)methyl)piperazine-1-carboxylate] | 1000 to 10000 nM | 100 to 1000 nM | > 10000 nM |
| Cc1nc2ccc(Cl)cn2c1CN1CCN(C(=O)ON2C(=O)CCC2=O)CC1 [Example 144] | 100 to 1000 nM | 1000 to 10000 nM | > 10000 nM |
| O=C(ON1C(=O)CCC1=O)N1CCN(Cc2cnc3ccc(Cl)cn23)CC1 [Example 145, 2,5-Dioxopyrrolidin-1-yl 4-((6-chloroimidazo[1,2-a]pyridin-3-yl)methyl)piperazine-1-carboxylate] | 1000 to 10000 nM | 1000 to 10000 nM | > 10000 nM |
| Cc1nc(N2CCCCC2)sc1CN1CCN(C(=O)ON2C(=O)CCC2=O)CC1 [Example 148, 2,5-Dioxopyrrolidin-1-yl 4-((4-methyl-2-(piperidin-1-yl)thiazol-5-yl)methyl)piperazine-1-carboxylate] | 1000 to 10000 nM | 1000 to 10000 nM | > 10000 nM |
| Cn1cc(CN2CCN(C(=O)ON3C(=O)CCC3=O)CC2)c(-c2ccccc2)n1 [Example 149, 2,5-Dioxopyrrolidin-1-yl 4-((1-methyl-3-phenyl-1H-pyrazol-4-yl)methyl)piperazine-1-carboxylate] | 1000 to 10000 nM | 1000 to 10000 nM | > 10000 nM |
| O=C(ON1C(=O)CCC1=O)N1CCN(C(c2cocn2)c2cocn2)CC1 [Example 152, 2,5-Dioxopyrrolidin-1-yl 4-(bis(oxazol-4-yl)methyl)piperazine-1-carboxylate] | 1000 to 10000 nM | 1000 to 10000 nM | 1000 to 10000 nM |
| Cc1cc(Cl)ccc1C(c1ccc(Cl)cc1C)N1CCN(C(=O)ON2C(=O)CCC2=O)CC1 [Example 153, 2,5-Dioxopyrrolidin-1-yl 4-(bis(4-chloro-2-methylphenyl)methyl)piperazine-1-carboxylate] | 1000 to 10000 nM | 100 to 1000 nM | > 10000 nM |
| Cc1cc(-c2ccccc2)ccc1CN1CCN(C(=O)ON2C(=O)CCC2=O)CC1 [Example 165, 2,5-Dioxopyrrolidin-1-yl 4-[(2-methyl-4-phenylphenyl)methyl]piperazine-1-carboxylate] | 100 to 1000 nM | 100 to 1000 nM | 1000 to 10000 nM |
| CC(C)c1cc(-c2ccccc2)ccc1CN1CCN(C(=O)ON2C(=O)CCC2=O)CC1 [Example 188, 2,5-Dioxopyrrolidin-1-yl 4-{[4-phenyl-2-(propan-2-yl)phenyl]methyl}piperazine-1-carboxylate] | 1000 to 10000 nM | 100 to 1000 nM | > 10000 nM |
| CN(C)C(=O)c1cc(-c2ccccc2)ccc1CN1CCN(C(=O)ON2C(=O)CCC2=O)CC1 [Example 189, 2,5-Dioxopyrrolidin-1-yl 4-{[2-(dimethylcarbamoyl)-4-phenylphenyl]methyl}piperazine-1-carboxylate] | 1000 to 10000 nM | 100 to 1000 nM | > 10000 nM |
